Test results reported in the NIST ThermoML archive (doi:10.1021/je700339f).

Assay: xn = mol fraction of the nth substance listed
Details: 298.15 K, Liquid

ClCCCl [1,2-dichloroethane] + CN(C)C=O
mass density [kg/m3]
Details	x2 = 0.0805	x2 = 0.1978	x2 = 0.302	x2 = 0.397	x2 = 0.4988	x2 = 0.6023	x2 = 0.7054	x2 = 0.8005	x2 = 0.9071
100 kPa	1221.2	1186.2	1154.9	1126.5	1095.7	1064.5	1033.6	1005.2	972.8
500 kPa	1221.5	1186.6	1155.2	1126.8	1096	1064.8	1033.9	1005.5	973.1
1000 kPa	1222	1187	1155.7	1127.2	1096.4	1062.2	1034.3	1005.8	973.3
1500 kPa	1222.5	1187.5	1156.2	1127.6	1096.8	1065.6	1034.7	1006.2	973.7
2000 kPa	1223	1188	1156.6	1128	1097.2	1065.9	1035	1006.5	974
2500 kPa	1223.4	1188.4	1156.9	1128.4	1097.6	1066.4	1035.4	1006.9	974.3
3000 kPa	1223.9	1188.8	1157.4	1128.8	1098	1066.7	1035.7	1007.2	974.6
3500 kPa	1224.3	1189.3	1157.8	1129.3	1098.3	1067	1036.1	1007.6	974.9
4000 kPa	1224.8	1189.7	1158.2	1129.6	1098.7	1067.4	1036.4	1007.9	975.2
4500 kPa	1225.3	1190.1	1158.6	1130.1	1099.2	1067.8	1036.7	1008.2	975.5
5000 kPa	1225.8	1190.6	1159.1	1130.4	1099.5	1068.2	1037.1	1008.5	975.9
5500 kPa	1226.3	1191	1159.5	1130.9	1099.8	1068.5	1037.4	1008.9	976.2
6000 kPa	1226.7	1191.5	1159.9	1131.4	1100.2	1068.8	1037.7	1009.2	976.5
6500 kPa	1227.1	1191.9	1160.3	1131.6	1100.6	1069.3	1038.1	1009.5	976.8
7000 kPa	1227.6	1192.3	1160.8	1132.1	1101	1069.6	1038.5	1009.8	977.1
7500 kPa	1228	1192.7	1161.2	1132.5	1101.4	1070	1038.8	1010.2	977.4
8000 kPa	1228.5	1193.2	1161.6	1132.8	1101.8	1070.3	1039.2	1010.5	977.8
8500 kPa	1228.9	1193.7	1161.9	1133.2	1102.1	1070.7	1039.5	1010.8	978.2
9000 kPa	1229.3	1194	1162.4	1133.7	1102.5	1071.1	1039.9	1011.2	978.4
9500 kPa	1229.8	1194.5	1162.8	1134	1102.9	1071.4	1040.2	1011.5	978.7
9900 kPa	–	–	–	–	–	–	–	1011.8	–
10000 kPa	1230.4	1195	1163.2	1134.5	1103.3	1071.8	1040.6	–	979.1
10500 kPa	1230.8	1195.4	1163.6	1134.9	1103.7	1072.2	1040.9	1012.2	979.4
11000 kPa	1231.2	1195.8	1164.1	1135.3	1104	1072.5	1041.2	1012.4	979.7
11400 kPa	–	–	1164.4	–	–	–	–	–	–
11500 kPa	1231.7	1196.2	–	1135.7	1104.4	1072.9	1041.6	1012.8	980
11900 kPa	–	–	–	1136	–	–	1041.9	–	–
12000 kPa	1232.2	1196.7	1164.9	–	1104.8	1073.2	–	1013.2	980.3
12400 kPa	–	–	1165.2	–	–	–	1042.2	–	980.5
12500 kPa	1232.6	1197.1	–	1136.5	1105.2	1073.5	–	1013.5	–
12900 kPa	–	–	–	1136.8	–	–	–	–	–
13000 kPa	1233.1	1197.4	1165.6	–	1105.6	1073.9	1042.6	1013.8	980.9
13400 kPa	1233.4	–	–	–	–	–	–	–	–
13500 kPa	–	1197.9	1166	1137.3	1105.9	1074.2	1042.9	1014.1	981.2
13900 kPa	–	–	–	–	–	1074.6	–	–	–
14000 kPa	1233.9	1198.3	1166.4	1137.6	1106.2	–	1043.2	1014.4	981.5
14500 kPa	1234.3	1198.8	1166.8	1137.9	1106.6	1074.9	1043.5	1014.7	981.8
14900 kPa	–	–	–	1138.2	–	–	1043.8	–	–
15000 kPa	1234.7	1199.1	1167.2	–	1107	1075.2	–	1015	982.1
15400 kPa	–	–	–	–	–	–	–	–	982.3
15500 kPa	1235.2	1199.6	1167.6	1138.7	1107.3	1075.6	1044.2	1015.3	–
15900 kPa	–	1199.9	–	–	–	–	–	–	–
16000 kPa	1235.6	–	1168	1139	1107.7	1075.9	1044.5	1015.7	982.6
16400 kPa	–	1200.3	–	–	–	–	–	1015.9	–
16500 kPa	1236	–	1168.4	1139.4	1108	1076.2	1044.8	–	983
16900 kPa	–	–	–	1139.7	–	–	–	–	–
17000 kPa	1236.4	1200.7	1168.7	–	1108.4	1076.6	1045.1	1016.3	983.2
17500 kPa	1236.8	1201.1	1169.1	1140.1	1108.7	1076.9	1045.4	1016.6	983.5
17900 kPa	–	–	–	–	–	–	–	1016.9	–
18000 kPa	1237.2	1201.5	1169.5	1140.5	1109	1077.3	1045.7	–	983.8
18400 kPa	–	–	–	–	–	1077.6	–	–	–
18500 kPa	1237.7	1201.9	1169.9	1140.8	1109.4	–	1046.1	1017.2	984.1
19000 kPa	1238.2	1202.4	1170.2	1141.2	1109.9	1078	1046.4	1017.5	984.4
19500 kPa	1238.6	1202.7	1170.6	1141.6	1110.2	1078.3	1046.7	1017.8	984.7
20000 kPa	1239	1203.1	1171.1	1142.1	1110.6	1078.6	1047.08	1018.2	985.1
